Assay results taken from patent publication US20150250786A1, “PYRIMIDINE HYDROXY AMIDE COMPOUNDS AS PROTEIN DEACETYLASE INHIBITORS AND METHODS OF USE THEREOF” (THE TRUSTEES OF THE UNIVERSITY OF PENNSYLVANIA, priority 2012, published 2015).
Several values for one entry are separate records, joined by “and”; a condition that tells them apart may be missing. Equal values may be shown once. Read-outs that look alike come from different tables or passages of the source.

Experiments:
mice [1] = experiment: Marble-burying task; assay type: in vivo, mouse; settings: acute administration
[2] = system: RN46A-B14 serotonergic cell line; experiment: α-tubulin K40 acetylation in RN46A-B14 cells (Western blot); assay type: cell-based, rat; settings: 4 hours; TSA 0.6 μM, others 2.5 μM
Method: In FIG. 3, it was observed that subchronic treatment, consisting of 5 treatments at 48, 28, 24, 4 and ½ hours before sacrifice, led to greater increase in tubulin acetylation than did chronic treatment of 1 injection/day for 21 days. For cell culture, RN46B cells were treated for with 0.25, 2.5 or 25 μM drug in DMSO for 1, 4 or 24 hours as indicated. Tukey post-hoc analysis: * P=0.01 to 0.05, ** P=0.001-0.01, ***P<0.001 when compared with vehicle treatment.
Results are shown as percent change normalized to the vehicle treatment condition. The horizontal hard line depicts average and the dotted lines depict SEM of the vehicle treated wells. Representative Western blot images are presented. […] Representative Western blot images are presented. […] The drugs (5 mg/kg) were administered subchronically (at 24 h, 4 h and 30 min prior to sacrifice) to HDAC6 KO and WT littermates. The changes in tubulin acetylation were measured in tissue lysates from cortex (ctx), hippocampus (Hpc), dorsal Raphe nucleus (DRN) and cerebellum (cb). The tubulin acetylation levels in drug-treated mice are expressed as percent change of the vehicle-treated mice of the corresponding genotype. The horizontal lines depict the average tubulin acetylation±SEM in the vehicle treated mice. The representative Western blot images show the changes induced by each drug treatment in the hippocampus (left column) and dorsal raphe (right column) of WT and HDAC6 KO mice.
In contrast to the class I isoforms HDAC2 and 3, which are expressed highly and ubiquitously in the mouse brain, HDAC6 mRNA expression appears to be restricted to a small number of brain areas, with highest signal observed in DRN (FIG. 13f). […] No changes in total α-tubulin expression were detected (FIG. 14a).

HDAC3 = HDAC3 (Homo sapiens, UniProt O15379); experiment: HDAC enzyme assay, HDAC3
Chain of HDAC3 (O15379 whole entry): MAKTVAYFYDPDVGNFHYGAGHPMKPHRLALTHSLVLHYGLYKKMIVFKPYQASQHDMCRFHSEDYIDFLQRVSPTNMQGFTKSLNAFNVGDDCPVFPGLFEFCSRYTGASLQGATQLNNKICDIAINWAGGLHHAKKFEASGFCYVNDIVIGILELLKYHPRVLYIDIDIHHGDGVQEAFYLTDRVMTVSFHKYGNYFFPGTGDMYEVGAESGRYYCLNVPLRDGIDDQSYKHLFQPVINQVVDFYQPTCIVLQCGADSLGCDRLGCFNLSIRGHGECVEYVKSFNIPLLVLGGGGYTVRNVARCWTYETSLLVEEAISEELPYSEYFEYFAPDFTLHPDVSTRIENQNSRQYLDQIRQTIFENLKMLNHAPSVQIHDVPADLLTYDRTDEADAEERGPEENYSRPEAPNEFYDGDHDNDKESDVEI
Chain of HDAC3 (Q9Y618 395-489 partner limits assumed): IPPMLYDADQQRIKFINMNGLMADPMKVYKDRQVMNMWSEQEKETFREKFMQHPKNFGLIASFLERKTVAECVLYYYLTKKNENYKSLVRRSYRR

[3] = system: histone H3 lysine 9 acetylation; experiment: Histone H3K9 acetylation in vivo (Western blot, ChIP); design: species or system mouse; settings: in vivo treatment
[4] = Pharmacokinetics and brain bio-distribution in mice; assay type: in vivo, mouse; settings: mouse; for Kp: brain, calculated over 2 hours
Method: […] Plasma samples were taken from all mice upon sacrifice. Brain samples were taken from the mice sacrificed at 5 and 15 minutes and 1 and 4 hours. The brain samples were homogenized in PBS and centrifuged at 14000 rpm for 5 minutes. The supernatant from the brain homogenate and the plasma samples were injected onto a LC/MS/MS for analysis. The compound level in the samples was determined by a standard curve in the appropriate matrix. Pharmacokinetic parameters were determined from the raw data by WinNonLin.

mice [5] = experiment: Chronic social defeat (CSD) and social interaction test; assay type: in vivo, mouse; settings: after CSD; fluoxetine 20 mg/kg, compound 73 5 mg/kg, compound 101 50 mg/kg
Method: Additionally, when combined with a dose of Citalopram with lower activity, these compounds seemed to have an additive effect (See FIG. 10). The dose of Citalopram chosen for this experiment was based on literature stating 2 mg/kg should be subactive, but this dose was found still showing an effect. Mice then underwent chronic social defeat stress, in which the mice are exposed to an aggressive resident mouse for 5 minutes daily for 10 days and are then tested on the 11th day in the social interaction test. Mice treated with vehicle for 20 total days, beginning 10 days before the defeat, show reduced time spent in the interaction zone when a target mouse is present when compared with control mice. […] The percent of mice found to be resilient, defined as spending more time in the interaction zone than the lowest control (i.e. ˜52 s), is higher in HDAC6 inhibitor groups. All behavior testing done using NIH Swiss mice, age 6-10 weeks. Tukey post-hoc analysis: * P=0.01 to 0.05, ** P=0.001-0.01, ***P<0.001 compared with vehicle treated mice.
The effects were observed 30 minutes after acute 50 mg/kg i.p. injection, but not for the lower dose (5 mg/kg). Combination of subactive doses of the HDAC6 selective inhibitors (5 mg/kg) and citalopram (0.5 mg/kg) produced robust potentiation of anti-immobility activity (n=8-29 per condition). […] No difference was observed between HDAC6 WT and KO when treated with the vehicle (n=6-15 per condition). FIG. 16c is a timeline showing treatment period, social defeat and social interaction (SI) testing.
A pro-resilient phenotype in the mouse CSD paradigm after serotonin-selective KO of HDAC6 was previously reported (Espallergues et al, 2012). Whether a chronic pharmacological inhibition of HDAC6 can replicate that phenotype is studied. […] On day 21, 24 h after the last injection, the mice were tested in the social interaction test. […] Significant effects were also observed when data was evaluated in terms of proportion of mice reaching criterion for resiliency.

HDAC2 = HDAC2 (Homo sapiens, UniProt Q92769); experiment: HDAC enzyme assay, HDAC2
Chain of HDAC2 (Q92769 whole entry): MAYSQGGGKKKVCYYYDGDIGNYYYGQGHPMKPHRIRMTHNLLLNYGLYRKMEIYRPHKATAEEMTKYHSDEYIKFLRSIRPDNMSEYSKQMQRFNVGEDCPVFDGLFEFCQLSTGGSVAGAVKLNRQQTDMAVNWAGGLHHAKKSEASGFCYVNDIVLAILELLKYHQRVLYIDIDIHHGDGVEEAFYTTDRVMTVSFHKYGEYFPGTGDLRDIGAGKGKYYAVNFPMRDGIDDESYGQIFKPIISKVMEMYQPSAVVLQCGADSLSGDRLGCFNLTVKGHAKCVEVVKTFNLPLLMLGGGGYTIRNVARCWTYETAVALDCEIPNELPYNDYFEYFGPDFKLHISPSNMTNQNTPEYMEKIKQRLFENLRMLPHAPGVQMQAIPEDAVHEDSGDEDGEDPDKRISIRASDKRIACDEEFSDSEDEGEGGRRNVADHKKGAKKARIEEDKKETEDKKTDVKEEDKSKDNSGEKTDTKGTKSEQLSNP

[6] = system: RN46A-B14 serotonergic cell line; experiment: Histone H3K9 acetylation in RN46A-B14 cells (Western blot); assay type: cell-based, rat; settings: 2.5 μM, 4 hours
[7] = system: all other class II HDAC isoforms; experiment: HDAC inhibition, other class II isoforms; settings: read-out: IC50 against all other class II HDAC isoforms
HDAC1 = HDAC1 (Homo sapiens, UniProt Q13547); experiment: HDAC enzyme assay, HDAC1
Chain of HDAC1 (Q13547 whole entry): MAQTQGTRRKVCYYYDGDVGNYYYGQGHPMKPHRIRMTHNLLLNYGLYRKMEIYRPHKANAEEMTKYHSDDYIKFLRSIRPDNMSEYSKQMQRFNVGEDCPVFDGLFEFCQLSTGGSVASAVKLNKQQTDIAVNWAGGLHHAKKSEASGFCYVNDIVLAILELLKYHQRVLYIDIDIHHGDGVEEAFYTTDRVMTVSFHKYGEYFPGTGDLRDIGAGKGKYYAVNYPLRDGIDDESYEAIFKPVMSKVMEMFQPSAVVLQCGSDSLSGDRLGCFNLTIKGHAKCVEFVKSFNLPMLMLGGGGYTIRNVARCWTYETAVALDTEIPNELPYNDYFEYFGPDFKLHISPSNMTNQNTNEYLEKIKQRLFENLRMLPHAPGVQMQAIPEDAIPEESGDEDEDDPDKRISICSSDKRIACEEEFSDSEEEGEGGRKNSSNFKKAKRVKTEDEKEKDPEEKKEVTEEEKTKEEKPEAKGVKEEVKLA

mice [8] = experiment: Elevated plus maze (EPM); assay type: in vivo, mouse; settings: acute administration

## O=C(NO)c1cnc(NC2(c3cccc(F)c3)CCCCC2)nc1 [Compound 101, 2-((1-(3-fluorophenyl)cyclohexyl)amino)-N-hydroxypyrimidine-5-carboxamide]
Mice [1]
  number of marbles buried: significantly reduced
[2]
  acetylated (lysine 40) fraction of α-tubulin: increases
HDAC3
  HDAC3 fold versus HDAC6 (in brackets): (1498.8x)
HDAC3; Table 3
  HDAC3 fold versus HDAC6 (in brackets): 1496 x
[3]
  acetylation of histone 3 at lysine 9 in Western blot: did not significantly alter
[4]; C57BL/6J, intraperitoneal, read-out: AUCBrain/AUCplasma
  Kp: 1.26
[4]; C57BL/6J, plasma, intraperitoneal, 5 mg/kg, read-out: 30 min plasma concentration (ng/ml) - 5 mg/kg
  concentration at 30 min: 496 ng/mL
[4]; C57BL/6J, plasma, intraperitoneal, 50 mg/kg, read-out: 30 min plasma concentration (ng/ml) - 50 mg/kg
  concentration at 30 min: 1360 ng/mL
[4]; C57BL/6J, plasma, ip, 5 mg/kg, mice, acute i.p. dosing, read-out: Cmax
  Cmax: 915 ng/mL
[4]; C57BL/6J, plasma, ip, mice, acute i.p. dosing, read-out: T½ plasma (converted)
  half-life: 30 min
[4]; intraperitoneal, read-out: AUCBrain/AUCplasma ratio
  Kp: > 1
[4]; plasma, intraperitoneal, acute 50 mg/kg injection, read-out: plasma level at t=30 minutes
  concentration at 30 min: 1360 ng/mL and 4.1 µM
[4]; plasma, intraperitoneal, read-out: plasma concentration after two hours
  concentration at 2 h: < 10 ng/mL
[4]; plasma, intraperitoneal, read-out: plasmatic half-life
  half-life: 12 min
Mice [5]
  percentage of resilient mice: 58%
HDAC2
  HDAC2 fold versus HDAC6 (in brackets): (343.2x)
HDAC2; Table 3
  HDAC2 fold versus HDAC6 (in brackets): 342 x
[6]
  change in histone H3K9 acetylation: no significant change
[7]
  IC50: > 1000 nM
HDAC1; Table 3
  HDAC1 fold versus HDAC6 (in brackets): 283 x
HDAC1; selectivity HDAC6 over HDAC1
  HDAC1 fold versus HDAC6 (in brackets): (283.5x)
Mice [8]
  behavioral changes / time in the open arms of the maze: neither compound 73 nor compound 101 produced behavioral changes
